Reference: PMC7265341, “Quantifying CDK inhibitor selectivity in live cells” (Nature Communications, 2020)
Where two headings read alike, the source gives them in different places.

Experiments:
CDK11B/Cyclin L2 = CDK11B/Cyclin L2 (Homo sapiens, UniProt P21127); assay: NanoBRET live-cell target engagement, CDK11B-NanoLuc/Cyclin L2 in HEK-293; type: binding; details: CDK11b/L2, 10µM
CDK5/CDK5R1 = CDK5/CDK5R1 (Homo sapiens, UniProt Q00535); assay: NanoBRET live-cell target engagement, CDK5-NanoLuc/CDK5R1 in HEK-293; type: binding; details: CDK5/CDK5R1, 10µM
CDK18/Cyclin Y = CDK18/Cyclin Y (Homo sapiens, UniProt Q07002); assay: NanoBRET live-cell target engagement, CDK18-NanoLuc/Cyclin Y in HEK-293; type: binding; details: CDK18/Y, 10µM
CDK1/Cyclin E1 = CDK1/Cyclin E1 (Homo sapiens, UniProt P06493); assay: NanoBRET live-cell target engagement, CDK1-NanoLuc/Cyclin E1 in HEK-293; type: binding; details: CDK1/E1, 10µM
CDK19/Cyclin C = CDK19/Cyclin C (Homo sapiens, UniProt Q9BWU1); assay: NanoBRET live-cell target engagement, NanoLuc-CDK19/Cyclin C in HEK-293; details: 10µM
CDK8/Cyclin C = CDK8/Cyclin C (Homo sapiens, UniProt P49336); assay: NanoBRET live-cell target engagement, NanoLuc-CDK8/Cyclin C in HEK-293; type: binding; details: CDK8/C, 10µM
CDK13/Cyclin K = CDK13/Cyclin K (Homo sapiens, UniProt Q14004); assay: NanoBRET live-cell target engagement, CDK13-NanoLuc/Cyclin K in HEK-293; type: binding; details: CDK13/K, 10µM
CDK17/Cyclin Y = CDK17/Cyclin Y (Homo sapiens, UniProt Q00537); assay: NanoBRET live-cell target engagement, CDK17-NanoLuc/Cyclin Y in HEK-293; type: binding; details: CDK17/Y, 10µM
CDK11A/Cyclin L2 = target: T1, CDK11A/Cyclin L2 (Homo sapiens, UniProt Q9UQ88); assay: NanoBRET live-cell target engagement, CDK11A-NanoLuc/Cyclin L2 in HEK-293; type: binding; details: CDK11a/L2, 10µM
T1 sequence (Q9UQ88 1-783): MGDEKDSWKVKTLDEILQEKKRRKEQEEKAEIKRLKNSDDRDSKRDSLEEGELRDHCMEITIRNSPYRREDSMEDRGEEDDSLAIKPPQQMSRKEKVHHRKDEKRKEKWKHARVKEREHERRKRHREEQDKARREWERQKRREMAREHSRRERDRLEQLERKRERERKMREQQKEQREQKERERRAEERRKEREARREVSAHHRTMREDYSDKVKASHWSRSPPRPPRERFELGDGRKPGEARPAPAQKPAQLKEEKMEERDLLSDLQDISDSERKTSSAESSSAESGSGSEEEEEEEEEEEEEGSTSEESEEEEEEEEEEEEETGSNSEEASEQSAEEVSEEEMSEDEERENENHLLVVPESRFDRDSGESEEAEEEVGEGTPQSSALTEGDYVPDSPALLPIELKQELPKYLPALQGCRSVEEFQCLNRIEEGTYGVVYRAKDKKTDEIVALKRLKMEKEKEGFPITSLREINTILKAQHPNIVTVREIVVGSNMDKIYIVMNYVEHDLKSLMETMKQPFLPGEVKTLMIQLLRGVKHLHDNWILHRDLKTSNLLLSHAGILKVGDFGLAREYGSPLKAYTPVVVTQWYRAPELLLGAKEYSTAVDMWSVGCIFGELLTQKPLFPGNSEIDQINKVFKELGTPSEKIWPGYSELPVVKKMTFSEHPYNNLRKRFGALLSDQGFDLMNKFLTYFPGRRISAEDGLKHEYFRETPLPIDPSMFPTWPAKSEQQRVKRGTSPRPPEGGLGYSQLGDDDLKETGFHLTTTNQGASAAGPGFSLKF

CDK20/Cyclin H = CDK20/Cyclin H (Homo sapiens, UniProt Q8IZL9); assay: NanoBRET live-cell target engagement, NanoLuc-CDK20/Cyclin H in HEK-293; type: binding; details: 10µM
CDK6/Cyclin D1 = CDK6/Cyclin D1 (Homo sapiens, UniProt Q00534); assay: NanoBRET live-cell target engagement, NanoLuc-CDK6/Cyclin D1 in HEK-293; type: binding; details: CDK6/D1, 10µM
CDK12/Cyclin K = CDK12/Cyclin K (Homo sapiens, UniProt Q9NYV4); assay: NanoBRET live-cell target engagement, CDK12-NanoLuc/Cyclin K in HEK-293; type: binding; details: 10µM
CDK4/Cyclin D1 = CDK4/Cyclin D1 (Homo sapiens, UniProt P11802); assay: NanoBRET live-cell target engagement, NanoLuc-CDK4/Cyclin D1 in HEK-293; type: binding; details: CDK4/D1, 10µM
CDK10/Cyclin L2 = CDK10/Cyclin L2 (Homo sapiens, UniProt Q15131); assay: NanoBRET live-cell target engagement, CDK10-NanoLuc/Cyclin L2 in HEK-293; details: 10µM
CDK7 = CDK7 (Homo sapiens, UniProt P50613); assay: NanoBRET live-cell target engagement, NanoLuc-CDK7 in HEK-293; type: binding; details: CDK7, 10µM
CDK9/Cyclin K = CDK9/Cyclin K (Homo sapiens, UniProt P50750); assay: NanoBRET live-cell target engagement, NanoLuc-CDK9/Cyclin K in HEK-293; type: binding; details: CDK9/K, 10µM
CDK16/Cyclin Y = CDK16/Cyclin Y (Homo sapiens, UniProt Q00536); assay: NanoBRET live-cell target engagement, CDK16-NanoLuc/Cyclin Y in HEK-293; type: binding; details: CDK16/Y, 10µM
CDK15/Cyclin Y = CDK15/Cyclin Y (Homo sapiens, UniProt Q96Q40); assay: NanoBRET live-cell target engagement, NanoLuc-CDK15/Cyclin Y in HEK-293; type: binding; details: CDK15/Y, 10µM
CDK14/Cyclin Y = CDK14/Cyclin Y (Homo sapiens, UniProt O94921); assay: NanoBRET live-cell target engagement, CDK14-NanoLuc/Cyclin Y in HEK-293; type: binding; details: CDK14/Y, 10µM
[1] = average of replicates, read-out: Inhibition at 10µM (%) Average
[2] = read-out: Inhibition at 10µM (%) Replicate 1
[3] = read-out: Inhibition at 10µM (%) Replicate 2

Sequence of CDK9/Cyclin K (P50750 whole entry): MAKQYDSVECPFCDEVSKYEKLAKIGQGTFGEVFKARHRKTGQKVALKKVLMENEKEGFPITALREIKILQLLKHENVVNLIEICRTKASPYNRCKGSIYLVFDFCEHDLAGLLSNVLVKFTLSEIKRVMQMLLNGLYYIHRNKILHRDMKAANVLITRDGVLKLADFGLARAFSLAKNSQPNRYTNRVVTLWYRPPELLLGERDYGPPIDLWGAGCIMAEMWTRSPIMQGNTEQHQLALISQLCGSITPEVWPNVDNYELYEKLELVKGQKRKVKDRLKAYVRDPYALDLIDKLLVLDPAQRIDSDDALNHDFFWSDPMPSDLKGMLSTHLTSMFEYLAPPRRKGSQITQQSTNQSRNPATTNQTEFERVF
Sequence of CDK9/Cyclin K (O75909 whole entry partner): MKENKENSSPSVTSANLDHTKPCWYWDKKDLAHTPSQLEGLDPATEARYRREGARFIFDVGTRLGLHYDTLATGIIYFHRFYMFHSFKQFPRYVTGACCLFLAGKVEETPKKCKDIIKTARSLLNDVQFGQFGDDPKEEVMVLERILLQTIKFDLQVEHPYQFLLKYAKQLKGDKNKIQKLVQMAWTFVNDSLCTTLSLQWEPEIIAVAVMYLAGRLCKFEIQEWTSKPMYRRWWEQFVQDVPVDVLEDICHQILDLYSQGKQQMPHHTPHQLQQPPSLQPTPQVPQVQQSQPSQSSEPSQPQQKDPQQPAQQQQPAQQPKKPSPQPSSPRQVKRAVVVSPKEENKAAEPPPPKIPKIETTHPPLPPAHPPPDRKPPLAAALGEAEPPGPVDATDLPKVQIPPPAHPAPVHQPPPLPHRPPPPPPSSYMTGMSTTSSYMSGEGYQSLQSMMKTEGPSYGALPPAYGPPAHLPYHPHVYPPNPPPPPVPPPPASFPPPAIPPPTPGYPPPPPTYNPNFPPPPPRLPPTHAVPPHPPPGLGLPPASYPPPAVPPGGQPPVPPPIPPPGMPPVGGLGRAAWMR
Sequence of CDK8/Cyclin C (P49336 whole entry): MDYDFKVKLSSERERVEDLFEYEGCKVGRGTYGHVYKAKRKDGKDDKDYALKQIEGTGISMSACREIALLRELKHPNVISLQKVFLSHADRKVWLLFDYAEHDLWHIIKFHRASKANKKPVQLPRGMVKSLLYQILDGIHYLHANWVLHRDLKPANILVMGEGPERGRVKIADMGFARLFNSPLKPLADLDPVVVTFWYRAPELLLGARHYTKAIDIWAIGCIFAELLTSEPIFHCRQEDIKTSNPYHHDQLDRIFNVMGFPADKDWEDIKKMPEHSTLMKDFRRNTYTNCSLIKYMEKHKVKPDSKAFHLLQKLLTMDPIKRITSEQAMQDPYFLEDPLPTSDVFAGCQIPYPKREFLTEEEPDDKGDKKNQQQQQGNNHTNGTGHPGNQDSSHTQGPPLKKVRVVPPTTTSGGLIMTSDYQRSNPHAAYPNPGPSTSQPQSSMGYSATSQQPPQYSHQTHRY
Sequence of CDK8/Cyclin C (P24863 whole entry partner): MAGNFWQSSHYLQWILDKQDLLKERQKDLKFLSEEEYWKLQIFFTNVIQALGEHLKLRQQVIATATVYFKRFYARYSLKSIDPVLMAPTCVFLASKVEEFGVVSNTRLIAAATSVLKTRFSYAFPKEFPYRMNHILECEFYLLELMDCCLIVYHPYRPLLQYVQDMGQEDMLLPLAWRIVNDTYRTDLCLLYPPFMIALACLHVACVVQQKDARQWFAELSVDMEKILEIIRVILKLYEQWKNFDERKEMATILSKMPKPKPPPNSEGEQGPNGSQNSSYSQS
Sequence of CDK17/Cyclin Y (Q00537 whole entry): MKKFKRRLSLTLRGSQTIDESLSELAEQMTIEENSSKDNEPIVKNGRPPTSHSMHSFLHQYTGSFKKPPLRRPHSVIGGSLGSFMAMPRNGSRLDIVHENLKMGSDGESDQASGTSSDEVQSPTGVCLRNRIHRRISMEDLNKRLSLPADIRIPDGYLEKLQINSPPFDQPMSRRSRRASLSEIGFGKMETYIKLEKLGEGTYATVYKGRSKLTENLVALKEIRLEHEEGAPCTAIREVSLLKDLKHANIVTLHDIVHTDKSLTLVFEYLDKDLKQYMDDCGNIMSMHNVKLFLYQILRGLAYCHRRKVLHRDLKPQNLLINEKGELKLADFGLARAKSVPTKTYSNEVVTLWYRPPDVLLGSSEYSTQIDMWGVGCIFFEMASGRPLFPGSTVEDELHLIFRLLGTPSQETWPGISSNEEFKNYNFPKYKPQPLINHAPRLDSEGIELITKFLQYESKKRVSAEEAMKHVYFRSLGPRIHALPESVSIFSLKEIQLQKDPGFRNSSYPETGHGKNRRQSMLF
Sequence of CDK17/Cyclin Y (Q8ND76 whole entry partner): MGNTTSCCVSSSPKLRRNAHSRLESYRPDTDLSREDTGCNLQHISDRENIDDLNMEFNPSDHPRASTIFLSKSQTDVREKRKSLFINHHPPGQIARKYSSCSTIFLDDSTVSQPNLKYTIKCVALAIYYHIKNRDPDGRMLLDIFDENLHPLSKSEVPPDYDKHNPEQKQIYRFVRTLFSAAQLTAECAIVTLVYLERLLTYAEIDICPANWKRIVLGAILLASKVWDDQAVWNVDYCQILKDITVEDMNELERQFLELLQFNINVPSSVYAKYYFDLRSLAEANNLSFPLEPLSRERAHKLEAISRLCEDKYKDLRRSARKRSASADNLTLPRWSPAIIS
Sequence of CDK6/Cyclin D1 (Q00534 whole entry): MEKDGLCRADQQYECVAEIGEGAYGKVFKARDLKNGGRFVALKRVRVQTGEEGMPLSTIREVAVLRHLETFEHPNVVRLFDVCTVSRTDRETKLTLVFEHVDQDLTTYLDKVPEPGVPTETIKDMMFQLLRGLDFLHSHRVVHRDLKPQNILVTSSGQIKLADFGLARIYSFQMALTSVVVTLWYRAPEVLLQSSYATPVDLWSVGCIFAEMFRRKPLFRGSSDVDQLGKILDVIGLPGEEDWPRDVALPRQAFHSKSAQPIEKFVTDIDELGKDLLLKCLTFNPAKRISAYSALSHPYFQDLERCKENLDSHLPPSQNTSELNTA
Sequence of CDK6/Cyclin D1 (P24385 whole entry partner): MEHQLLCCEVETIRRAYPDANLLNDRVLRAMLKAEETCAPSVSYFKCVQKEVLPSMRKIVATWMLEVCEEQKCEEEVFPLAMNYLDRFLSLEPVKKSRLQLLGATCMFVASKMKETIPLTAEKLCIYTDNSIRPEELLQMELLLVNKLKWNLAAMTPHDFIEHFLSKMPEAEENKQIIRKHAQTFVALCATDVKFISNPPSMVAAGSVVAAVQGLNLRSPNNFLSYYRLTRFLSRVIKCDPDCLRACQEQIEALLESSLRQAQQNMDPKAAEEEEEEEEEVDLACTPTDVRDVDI
Sequence of CDK14/Cyclin Y (O94921 whole entry): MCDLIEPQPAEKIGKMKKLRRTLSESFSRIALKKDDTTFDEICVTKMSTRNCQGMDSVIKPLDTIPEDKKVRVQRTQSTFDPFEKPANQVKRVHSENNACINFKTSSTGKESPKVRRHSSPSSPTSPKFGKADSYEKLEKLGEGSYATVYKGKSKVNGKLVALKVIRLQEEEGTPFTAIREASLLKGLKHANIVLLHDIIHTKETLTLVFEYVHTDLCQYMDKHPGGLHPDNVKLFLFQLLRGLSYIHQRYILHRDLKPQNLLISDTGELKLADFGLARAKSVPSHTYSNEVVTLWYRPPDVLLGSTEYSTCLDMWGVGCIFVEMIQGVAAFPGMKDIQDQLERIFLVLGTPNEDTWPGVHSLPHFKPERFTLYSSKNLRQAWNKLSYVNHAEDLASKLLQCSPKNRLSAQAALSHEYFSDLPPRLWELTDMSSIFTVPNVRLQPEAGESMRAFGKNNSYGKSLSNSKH
Sequence of CDK14/Cyclin Y (Q8ND76 whole entry partner): as the sequence (Q8ND76 whole entry partner) above
Sequence of CDK19/Cyclin C (Q9BWU1 whole entry): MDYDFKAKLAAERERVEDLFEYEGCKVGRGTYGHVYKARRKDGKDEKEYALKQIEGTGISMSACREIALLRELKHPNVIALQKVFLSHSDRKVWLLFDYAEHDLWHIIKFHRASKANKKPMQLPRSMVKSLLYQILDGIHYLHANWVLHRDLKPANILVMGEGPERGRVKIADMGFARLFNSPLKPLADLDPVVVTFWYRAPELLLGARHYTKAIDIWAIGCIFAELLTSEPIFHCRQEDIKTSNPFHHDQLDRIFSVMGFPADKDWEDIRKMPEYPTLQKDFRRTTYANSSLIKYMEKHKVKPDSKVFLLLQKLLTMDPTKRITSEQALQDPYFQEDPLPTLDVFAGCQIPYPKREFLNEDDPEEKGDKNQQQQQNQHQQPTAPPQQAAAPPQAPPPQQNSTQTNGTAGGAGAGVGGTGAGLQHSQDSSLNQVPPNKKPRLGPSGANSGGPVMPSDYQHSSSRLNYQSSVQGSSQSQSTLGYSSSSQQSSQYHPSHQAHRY
Sequence of CDK19/Cyclin C (P24863 whole entry partner): as the sequence (P24863 whole entry partner) above
Sequence of CDK4/Cyclin D1 (P11802 whole entry): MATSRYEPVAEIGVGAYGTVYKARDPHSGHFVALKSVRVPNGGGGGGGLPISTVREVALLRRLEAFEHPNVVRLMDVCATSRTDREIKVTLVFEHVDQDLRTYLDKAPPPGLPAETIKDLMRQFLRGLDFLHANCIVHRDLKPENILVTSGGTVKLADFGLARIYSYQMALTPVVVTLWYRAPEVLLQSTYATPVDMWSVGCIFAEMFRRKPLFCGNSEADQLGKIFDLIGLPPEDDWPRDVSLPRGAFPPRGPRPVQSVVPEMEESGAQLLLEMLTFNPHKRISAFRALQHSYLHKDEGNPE
Sequence of CDK4/Cyclin D1 (P24385 whole entry partner): as the sequence (P24385 whole entry partner) above
Sequence of CDK7 (P50613 whole entry): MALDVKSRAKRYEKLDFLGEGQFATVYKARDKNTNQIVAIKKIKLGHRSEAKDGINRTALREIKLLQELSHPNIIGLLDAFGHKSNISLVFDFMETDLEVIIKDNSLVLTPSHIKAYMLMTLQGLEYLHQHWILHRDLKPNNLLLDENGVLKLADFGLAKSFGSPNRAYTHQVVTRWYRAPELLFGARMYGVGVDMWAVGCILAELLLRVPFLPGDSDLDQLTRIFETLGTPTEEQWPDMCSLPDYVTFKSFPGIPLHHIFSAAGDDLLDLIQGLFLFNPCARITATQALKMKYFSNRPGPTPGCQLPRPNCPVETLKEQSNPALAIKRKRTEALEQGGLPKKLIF

Compound: COc1cc(F)ccc1-c1ncnc(Nc2cccc(C[S@](C)(=N)=O)c2)n1 [Atuveciclib]
- inhibition at 10 µM (CDK11B/Cyclin L2; [1]): 7.4%
- inhibition at 10 µM (CDK11B/Cyclin L2; [2]): 11.9%
- inhibition at 10 µM (CDK11B/Cyclin L2; [3]): 2.9%
- inhibition at 10 µM (CDK5/CDK5R1; [1]): 26.1%
- inhibition at 10 µM (CDK5/CDK5R1; [2]): 23.9%
- inhibition at 10 µM (CDK5/CDK5R1; [3]): 28.3%
- inhibition at 10 µM (CDK18/Cyclin Y; [1]): 19.9%
- inhibition at 10 µM (CDK18/Cyclin Y; [2]): 17.3%
- inhibition at 10 µM (CDK18/Cyclin Y; [3]): 22.4%
- inhibition at 10 µM (CDK1/Cyclin E1; [1]): 16.6%
- inhibition at 10 µM (CDK1/Cyclin E1; [2]): 19.4%
- inhibition at 10 µM (CDK1/Cyclin E1; [3]): 13.8%
- inhibition at 10 µM (CDK19/Cyclin C; read-out: Inhibition at 10µM (%) Average, CDK19/C, average of replicates): 11.1%
- inhibition at 10 µM (CDK19/Cyclin C; read-out: Inhibition at 10µM (%) Replicate 1, CDK19/C): 12.3%
- inhibition at 10 µM (CDK19/Cyclin C; read-out: Inhibition at 10µM (%) Replicate 2, CDK19/C): 9.9%
- inhibition at 10 µM (CDK8/Cyclin C; [1]): 3%
- inhibition at 10 µM (CDK8/Cyclin C; [2]): -1%
- inhibition at 10 µM (CDK8/Cyclin C; [3]): 7%
- inhibition at 10 µM (CDK13/Cyclin K; [1]): 4.8%
- inhibition at 10 µM (CDK13/Cyclin K; [2]): 8%
- inhibition at 10 µM (CDK13/Cyclin K; [3]): 1.6%
- inhibition at 10 µM (CDK17/Cyclin Y; [1]): 31%
- inhibition at 10 µM (CDK17/Cyclin Y; [2]): 30.9%
- inhibition at 10 µM (CDK17/Cyclin Y; [3]): 31.1%
- inhibition at 10 µM (CDK11A/Cyclin L2; [1]): 10%
- inhibition at 10 µM (CDK11A/Cyclin L2; [2]): 12.3%
- inhibition at 10 µM (CDK11A/Cyclin L2; [3]): 7.6%
- inhibition at 10 µM (CDK20/Cyclin H; read-out: Inhibition at 10µM (%) Replicate 1, CDK20/H): 1.3%
- inhibition at 10 µM (CDK20/Cyclin H; read-out: Inhibition at 10µM (%) Replicate 2, CDK20/H): 1.3%
- inhibition at 10 µM (CDK6/Cyclin D1; [1]): 64.1%
- inhibition at 10 µM (CDK6/Cyclin D1; [2]): 61.7%
- inhibition at 10 µM (CDK6/Cyclin D1; [3]): 66.4%
- inhibition at 10 µM (CDK12/Cyclin K; read-out: Inhibition at 10µM (%) Average, CDK12/K, average of replicates): 8.2%
- inhibition at 10 µM (CDK12/Cyclin K; read-out: Inhibition at 10µM (%) Replicate 1, CDK12/K): 3%
- inhibition at 10 µM (CDK12/Cyclin K; read-out: Inhibition at 10µM (%) Replicate 2, CDK12/K): 13.3%
- inhibition at 10 µM (CDK4/Cyclin D1; [1]): 31.5%
- inhibition at 10 µM (CDK4/Cyclin D1; [2]): 53.7%
- inhibition at 10 µM (CDK4/Cyclin D1; [3]): 9.3%
- inhibition at 10 µM (CDK10/Cyclin L2; read-out: Inhibition at 10µM (%) Average, CDK10/L2, average of replicates): 6.3%
- inhibition at 10 µM (CDK10/Cyclin L2; read-out: Inhibition at 10µM (%) Replicate 1, CDK10/L2): 9.2%
- inhibition at 10 µM (CDK10/Cyclin L2; read-out: Inhibition at 10µM (%) Replicate 2, CDK10/L2): 3.4%
- inhibition at 10 µM (CDK7; [1]): 16.8%
- inhibition at 10 µM (CDK7; [2]): 22%
- inhibition at 10 µM (CDK7; [3]): 11.6%
- inhibition at 10 µM (CDK9/Cyclin K; [1]): 97.9%
- inhibition at 10 µM (CDK9/Cyclin K; [2]): 98.1%
- inhibition at 10 µM (CDK9/Cyclin K; [3]): 97.6%
- inhibition at 10 µM (CDK16/Cyclin Y; [2]): 39.3%
- inhibition at 10 µM (CDK16/Cyclin Y; [3]): 37.9%
- inhibition at 10 µM (CDK15/Cyclin Y; [1]): 4.5%
- inhibition at 10 µM (CDK15/Cyclin Y; [2]): 2%
- inhibition at 10 µM (CDK15/Cyclin Y; [3]): 7.1%
- inhibition at 10 µM (CDK14/Cyclin Y; [1]): 3%
- inhibition at 10 µM (CDK14/Cyclin Y; [2]): 8.4%
- inhibition at 10 µM (CDK14/Cyclin Y; [3]): -2.5%
